According to patent publication US11903386B2, “Strigolactone analogs and their usage in plant control” (King Abdullah University of Science and Technology, priority 2016, dated 2024):
Entries after “also recorded” stand apart in the source; their conditions may differ.

Tests used:
[1] = Chemical stability of MPs in aqueous solution, monitored by HPLC; format: physicochemical; details: aqueous solution pH 6.8, 21° C., monitored at 24 h intervals up to 3 weeks
Description: Aqueous solutions of MPs (50 μg ml-1; pH 6.8) were incubated at 21° C. in amber HPLC vials. For sample preparation, 50 μl of an acetone solution (1 mg ml-1) was diluted to the final concentration with methanol (425 μl), water (500 μl) and 25 μl of 1-Indanol (1.0 mg ml-1 solution in acetone) as internal standard. […] The column was operated at 35° C. with a flow rate of 0.25 ml per min. Compounds eluted from the column were detected with a Diode array detector. Relative quantity of remaining (non-degraded) product was determined by comparison to the internal standard.

[2] = system: S. hermonthica seeds; assay: Striga hermonthica seed germination bioassay; format: in vivo; details: comparison between compounds
Description: Parasitic weed seeds (S. hermonthica and P. ramosa) germination activity was recorded as described previously (Jamil et al., 2012). Six pre-conditioned seed discs were placed in a 90 mm petri-dish containing a filter paper ring wetted with 0.9 ml sterile MilliQ water. […] GR24 solutions with equal concentrations and sterile MilliQ water were included as a positive and negative control, respectively. After application, seeds were incubated at 30° C./25° C. in the dark for two days. Germination (seeds with radical emerging through seed coat) was scored under a binocular microscope, and germination rate (%) was calculated. Statistical analyses were carried out using statistical software package R (version 3.2.2). Dose-response curves and Half Maximum Effective Concentrations (EC50) were calculated to determine optimum amount of MPs. Synthetic strigolactone analog GR24 was used as reference to estimate efficacy of selected compounds. EC50 and estimated response were calculated using drc package (https://cran.r390 project.org/web/packages/drc/) with a Four Parameter Logistic Curve (Dose Response Curve) (Ritz and Streibig, 2005).

[3] = system: rice seedlings (Shiokari, d3, d10); assay: Growth and fresh biomass of hydroponically grown rice seedlings; format: in vivo; details: 2.5 μM, twice a week for three weeks
Description: Rice seeds (WT, d3, d10) were surface-sterilized by washing with 70% ethanol for 1 min and then with 2.5% sodium hypochlorite for 15 min. Seeds were then rinsed thoroughly with sterile MilliQ water and incubated in water for 2 days at 30° C. in the dark. Pre-germinated seeds were transferred to filter papers containing ½ strength MS medium in 90 mm petri dishes and incubated at 30° C. under fluorescent white light (130-180 μM m^−2 s^−1) for one week. Seven day-old seedlings were transferred to 50 ml falcon tubes (one seedling per tube) containing modified half-strength Hoagland nutrient solution and grown in greenhouse. Plants were treated with MPs at 2.5 μM-2.5×10-7 μM, using GR24 as positive control. The compounds were applied six times, twice a week. Number of tillers per plant, plant height and fresh biomass were measured at final harvest.

[4] = system: Arabidopsis seedlings; assay: Arabidopsis hypocotyl elongation assay; format: in vivo; details: 1.0 μM
Description: Sterilized Arabidopsis seeds were sown on half strength MS (with 0.5% sucrose+1% agar, 0.5 g L-1 MES, pH 5.7) plates supplemented with MPs or GR24 (at 1.0 μM). Plates were stored at 4° C. in darkness for 3 days. To initiate germination, plates were exposed to continuous white light for 24 h then transferred to continuous monochromatic red light (160 Lux, 22° C.) conditions for another 4 days. For hypocotyl length measurement, at least 30 seedlings were measured using the publically available ImageJ software (http://rsbweb.nih.gov/ij/) after taking digital photographs. Monochromatic red light source was applied as described previously (Wu and Yang, 2010). Light flow rates were measured using a Li250 quantum photometer (Li-Cor, Lincoln, NE, USA).

[5] = system: S. hermonthica; details: in vivo; cited from earlier work
[6] = system: Arabidopsis seedlings; assay: Arabidopsis lateral root density and primary root length; format: in vivo; details: 1.0 μM, 8 days old seedlings
Description: Sterilized Arabidopsis seeds were sown on half strength MS (with 0.5% sucrose+1% agar, 0.5 g L^−1 MES, pH 5.7) plates supplemented with GR24 or MPs (at 1.0 μM). Plates were stored at 4° C. in darkness for 3 days and then vertically grown at 22° C. in Percival incubator under long day condition (16 h at 22° C./8 h at 16° C. day/night, 60% relative humidity, 4000-5000 LUX white light) for 8 days. For determining the effect on lateral root density and primary root length, at least 30 seedlings were measured using publically available ImageJ software (http://rsbweb.nih.gov/ij/) after scanning roots.

[7] = system: P. ramosa seeds; assay: P. ramosa seed germination bioassay; format: in vivo; details: 1.0 μM
Description: Parasitic weed seeds (S. hermonthica and P. ramosa) germination activity was recorded as described previously (Jamil et al., 2012). Six pre-conditioned seed discs were placed in a 90 mm petri-dish containing a filter paper ring wetted with 0.9 ml sterile MilliQ water. […] GR24 solutions with equal concentrations and sterile MilliQ water were included as a positive and negative control, respectively. After application, seeds were incubated at 30° C./25° C. in the dark for two days. Germination (seeds with radical emerging through seed coat) was scored under a binocular microscope, and germination rate (%) was calculated.

In the case of `COC(=O)/C(=C/OC1C=C(C)C(=O)O1)c1ccccc1Cl` (centres unmarked) [MP9], the “Stability in comparison to GR24” value [1] is reported as “very similar to that of GR24”, the “Relative activity in inducing S. hermonthica seed germination” value [2] is reported as “followed by MP9” and the “Growth, senescence symptoms and biomass of rice seedlings” value [3] is reported as “stunted the growth and caused senescence symptoms”.

For `CC1=CC(O/C=C(/C=O)c2ccc([N+](=O)[O-])cc2)OC1=O` (racemic) [MP12, (E)-3-(4-methyl-5-oxo-2,5-dihydrofuran-2-yloxy)-2-(4-nitrophenyl)acrylaldehyde], the “Stability in comparison to GR24” value [1] was “not detectable even after only 24 h” and the “Inhibition of hypocotyl growth” value [4] was “Apart from MP12 and MP15, all MPs showed significant inhibition”.

For `CC1=CC(O/C=C(C)\C=C\C2=C(C)CCCC2(C)C)OC1=O` (centres unmarked) [Carlactone], the “Activity in S. hermonthica seed germination” value [5] is given as “considerable activity”.

For `COC(=O)/C(=C/OC1C=C(C)C(=O)O1)c1ccc(OC)cc1` (centres unmarked) [MP14], the “Stability in comparison to GR24” value [1] was “very similar to that of GR24”.

For `COC(=O)/C(=C/OC1C=C(C)C(=O)O1)c1cccc(Cl)c1` (centres unmarked) [MP8], the “Reduction of number of lateral roots / lateral root density” value [6] was “slightly more active than GR24”, the “Stability in comparison to GR24” value [1] was “very similar to that of GR24” and the “P. ramosa seed germination activity” value [7] was “much higher activity”.

For `CC1=CC(O/C=C2/C(=O)OCc3ccccc32)OC1=O` (centres unmarked) [MP5], the “Stability in comparison to GR24” value [1] was “more stable than GR24; also recorded: the most stable compound”.
